Reference: PubChem BioAssay AID1963979 (Molecular Pharmacology Branch, DTP, NCI, 2024)

Tested on: 361931-004-R-J1-PDC multicell spheroid viability
Test: Anticancer human tumor 361931-004-R-J1-PDC patient-derived colon adenocarcinoma cell line growth inhibition [PI3K]
Details: for viability, T/C: stronger effect = lower value
In short: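 Stroma-containing spheroids: tumor line, pooled-donor HUVEC, hMSC. Treatments: targeted agents with PI3K inhibitors. Dosing: clinically relevant, half-log spacing, 10 microM ceiling without known Cmax. Read-out: cell viability.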

[1] = curve of first compound, second compound 0.00316 µM
[2] = curve of first compound, second compound 0.01 µM
[3] = curve of first compound, second compound 0.0316 µM
[4] = curve of first compound, second compound 0.1 µM
[5] = curve of first compound, second compound 0.316 µM
[6] = curve of first compound, second compound 1 µM
[7] = compound alone, run of 05/09/2023
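Further: spheroids exposed to agents for seven days before readout.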

## Cn1cnc2c(F)c(Nc3ccc(Br)cc3Cl)c(C(=O)NOCCO)cc21 + COc1c(OCCCN2CCOCC2)ccc2c3n(c(=NC(=O)c4cnc(N)nc4)nc12)CCN3
[1]
  IC50: > 3000 nM
[2]
  IC50: 1950 nM
[3]
  IC50: 718 nM
[4]
  IC50: 156 nM
[5]
  IC50: 11.4 nM
[6]
  IC50: < 9.49 nM
Second compound 0.00316 µM, first compound 0.00949 µM
  viability, T/C: 104%
Second compound 0.00316 µM, first compound 0.03 µM
  viability, T/C: 99.9%
Second compound 0.00316 µM, first compound 0.0949 µM
  viability, T/C: 92.1%
Second compound 0.00316 µM, first compound 0.3 µM
  viability, T/C: 86.6%
Second compound 0.00316 µM, first compound 0.949 µM
  viability, T/C: 75.6%
Second compound 0.00316 µM, first compound 3 µM
  viability, T/C: 57.5%
Second compound 0.01 µM, first compound 0.00949 µM
  viability, T/C: 107%
Second compound 0.01 µM, first compound 0.03 µM
  viability, T/C: 101%
Second compound 0.01 µM, first compound 0.0949 µM
  viability, T/C: 88.6%
Second compound 0.01 µM, first compound 0.3 µM
  viability, T/C: 85.6%
Second compound 0.01 µM, first compound 0.949 µM
  viability, T/C: 69%
Second compound 0.01 µM, first compound 3 µM
  viability, T/C: 38.7%
Second compound 0.0316 µM, first compound 0.00949 µM
  viability, T/C: 102%
Second compound 0.0316 µM, first compound 0.03 µM
  viability, T/C: 93%
Second compound 0.0316 µM, first compound 0.0949 µM
  viability, T/C: 81%
Second compound 0.0316 µM, first compound 0.3 µM
  viability, T/C: 67.2%
Second compound 0.0316 µM, first compound 0.949 µM
  viability, T/C: 45.3%
Second compound 0.0316 µM, first compound 3 µM
  viability, T/C: 16%
Second compound 0.1 µM, first compound 0.00949 µM
  viability, T/C: 81.5%
Second compound 0.1 µM, first compound 0.03 µM
  viability, T/C: 69.3%
Second compound 0.1 µM, first compound 0.0949 µM
  viability, T/C: 55.4%
Second compound 0.1 µM, first compound 0.3 µM
  viability, T/C: 43.1%
Second compound 0.1 µM, first compound 0.949 µM
  viability, T/C: 23.9%
Second compound 0.1 µM, first compound 3 µM
  viability, T/C: 3.88%
Second compound 0.316 µM, first compound 0.00949 µM
  viability, T/C: 50.8%
Second compound 0.316 µM, first compound 0.03 µM
  viability, T/C: 44.9%
Second compound 0.316 µM, first compound 0.0949 µM
  viability, T/C: 28.9%
Second compound 0.316 µM, first compound 0.3 µM
  viability, T/C: 18%
Second compound 0.316 µM, first compound 0.949 µM
  viability, T/C: 4.2%
Second compound 0.316 µM, first compound 3 µM
  viability, T/C: 1.79%
Second compound 1 µM, first compound 0.00949 µM
  viability, T/C: 21.7%
Second compound 1 µM, first compound 0.03 µM
  viability, T/C: 17.9%
Second compound 1 µM, first compound 0.0949 µM
  viability, T/C: 10.1%
Second compound 1 µM, first compound 0.3 µM
  viability, T/C: 3.9%
Second compound 1 µM, first compound 0.949 µM
  viability, T/C: 2.04%
Second compound 1 µM, first compound 3 µM
  viability, T/C: 1.34%

## COc1c(OCCCN2CCOCC2)ccc2c3n(c(=NC(=O)c4cnc(N)nc4)nc12)CCN3
Compound 0.00316 µM
  viability, T/C: 102% [middle of 8 runs]
Compound 0.01 µM
  viability, T/C: 98.4% [middle of 8 runs]
Compound 0.0316 µM
  viability, T/C: 95.4% [middle of 8 runs]
Compound 0.1 µM
  viability, T/C: 80.6% [middle of 8 runs]
Compound 0.316 µM
  viability, T/C: 55.9% [middle of 8 runs]
Compound 1 µM
  viability, T/C: 22.8% [middle of 8 runs]
[7]
  IC50: 393 nM [middle of 8 runs]

## CC(Nc1ncnc2nc[nH]c12)c1cc2cccc(Cl)c2c(=O)n1-c1ccccc1 (stereo not drawn)
Compound 0.0316 µM
  viability, T/C: 106% [middle of 8 runs]
Compound 0.1 µM
  viability, T/C: 102% [middle of 8 runs]
Compound 0.316 µM
  viability, T/C: 105% [middle of 8 runs]
Compound 1 µM
  viability, T/C: 104% [middle of 8 runs]
Compound 3.16 µM
  viability, T/C: 103% [middle of 8 runs]
Compound 10 µM
  viability, T/C: 102% [middle of 8 runs]
[7]
  IC50: > 10000 nM

## CNC(=O)c1ccc(N2C(=S)N(c3ccc(C#N)c(C(F)(F)F)c3)C(=O)C2(C)C)cc1F + CC(Nc1ccc2c(c1)OCCn1cc(N3C(=O)OCC3C(F)F)nc1-2)C(N)=O
[1]
  IC50: > 10000 nM
[2]
  IC50: > 10000 nM
[3]
  IC50: > 10000 nM
[4]
  IC50: > 10000 nM
[5]
  IC50: > 10000 nM
[6]
  IC50: > 10000 nM
Second compound 0.00316 µM, first compound 0.0316 µM
  viability, T/C: 110%
Second compound 0.00316 µM, first compound 0.1 µM
  viability, T/C: 101%
Second compound 0.00316 µM, first compound 0.316 µM
  viability, T/C: 101%
Second compound 0.00316 µM, first compound 1 µM
  viability, T/C: 92.8%
Second compound 0.00316 µM, first compound 3.16 µM
  viability, T/C: 110%
Second compound 0.00316 µM, first compound 10 µM
  viability, T/C: 93.7%
Second compound 0.01 µM, first compound 0.0316 µM
  viability, T/C: 109%
Second compound 0.01 µM, first compound 0.1 µM
  viability, T/C: 102%
Second compound 0.01 µM, first compound 0.316 µM
  viability, T/C: 85.2%
Second compound 0.01 µM, first compound 1 µM
  viability, T/C: 104%
Second compound 0.01 µM, first compound 3.16 µM
  viability, T/C: 103%
Second compound 0.01 µM, first compound 10 µM
  viability, T/C: 90.4%
Second compound 0.0316 µM, first compound 0.0316 µM
  viability, T/C: 107%
Second compound 0.0316 µM, first compound 0.1 µM
  viability, T/C: 103%
Second compound 0.0316 µM, first compound 0.316 µM
  viability, T/C: 105%
Second compound 0.0316 µM, first compound 1 µM
  viability, T/C: 102%
Second compound 0.0316 µM, first compound 3.16 µM
  viability, T/C: 105%
Second compound 0.0316 µM, first compound 10 µM
  viability, T/C: 82.4%
Second compound 0.1 µM, first compound 0.0316 µM
  viability, T/C: 94.6%
Second compound 0.1 µM, first compound 0.1 µM
  viability, T/C: 99.1%
Second compound 0.1 µM, first compound 0.316 µM
  viability, T/C: 93.1%
Second compound 0.1 µM, first compound 1 µM
  viability, T/C: 100%
Second compound 0.1 µM, first compound 3.16 µM
  viability, T/C: 97.4%
Second compound 0.1 µM, first compound 10 µM
  viability, T/C: 86.4%
Second compound 0.316 µM, first compound 0.0316 µM
  viability, T/C: 88.1%
Second compound 0.316 µM, first compound 0.1 µM
  viability, T/C: 94%
Second compound 0.316 µM, first compound 0.316 µM
  viability, T/C: 88.6%
Second compound 0.316 µM, first compound 1 µM
  viability, T/C: 87.9%
Second compound 0.316 µM, first compound 3.16 µM
  viability, T/C: 87.5%
Second compound 0.316 µM, first compound 10 µM
  viability, T/C: 76%
Second compound 1 µM, first compound 0.0316 µM
  viability, T/C: 75.9%
Second compound 1 µM, first compound 0.1 µM
  viability, T/C: 82.1%
Second compound 1 µM, first compound 0.316 µM
  viability, T/C: 79.3%
Second compound 1 µM, first compound 1 µM
  viability, T/C: 78%
Second compound 1 µM, first compound 3.16 µM
  viability, T/C: 76.1%
Second compound 1 µM, first compound 10 µM
  viability, T/C: 79.6%
